The values below come from the supplement of paper PMC8497498.

Each structure is given as a SMILES string.

For test [1], the system named is Plasmodium vivax liver stage (primary human hepatocyte culture). The protocol:
(§1)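 Dose-response of P. vivax liver stages in primary human hepatocytes, with 8 points (10 uM-[…], v1) or 12 points in duplicate (50 uM-280 pM, v2). Read-out is high-content imaging of schizont net growth area, hypnozoite quantity and hepatic nuclei. EC50 and CC20 (20% nuclei loss) were fitted in CDD Vault from the highest-quality independent experiment; toxic-dose bell-shaped points were masked. '>' marks the highest concentration with less than 50% activity, and ND means a non-sigmoidal curve.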

Test [2] has as its system primary human hepatocytes. Description: CC20 hepatic nuclei (20% reduction); higher = less toxic. As to the method:
as §1

In test [3] the test system is Plasmodium vivax liver stage (primary human hepatocyte culture). Nature of the test: maximum inhibition of schizont net growth area; higher = more active. The protocol: as §1
Setting [4] is: P. vivax isolate: Pv395, hepatocyte lot: UBV, assay mode: Radical Cure, 8-day (treatment from day 5 post-infection).
Setting [5] is: P. vivax isolate: Pv657, hepatocyte lot: BGW, assay mode: Radical Cure, 8-day (treatment from day 5 post-infection).
[6] abbreviates: P. vivax isolate: Pv557, hepatocyte lot: UBV, assay mode: Radical Cure, 8-day (treatment from day 5 post-infection).
[7] abbreviates: P. vivax isolate: Pv668, hepatocyte lot: BGW, assay mode: Radical Cure, 8-day (treatment from day 5 post-infection).
[8] abbreviates: P. vivax isolate: Pv590, hepatocyte lot: UBV, assay mode: Radical Cure, 8-day (treatment from day 5 post-infection).
The mark [9] stands for this setting: P. vivax isolate: Pv458, hepatocyte lot: UBV, assay mode: Radical Cure, 8-day (treatment from day 5 post-infection).
[10] abbreviates: P. vivax isolate: IVS16-38, hepatocyte lot: PDC, assay mode: Prophylactic, 6-day.
[11] abbreviates: P. vivax isolate: Pv395, hepatocyte lot: UBV, assay mode: Prophylactic, 6-day.
[12] abbreviates: P. vivax isolate: Pv728, hepatocyte lot: BGW, assay mode: Radical Cure, 8-day (treatment from day 5 post-infection).

Consider `c1ccc(-c2csc(Nc3nc4cc5c(cc4s3)OCO5)n2)nc1`, for which, in test [1] (setting [4]), the EC50 hypnozoite quantity is more than 10 µM and the “EC50 schizont net growth area” value was more than 3330 nM. For the same compound, the CC20 hepatic nuclei in test [2] (setting [4]) was more than 10 µM. For the same compound, the maximum inhibition in test [3] (setting [4]) is 72.6%.

Take `CC(C)(C)n1nc(-c2ccccc2)c2c(N)ncnc21`: in test [1] (setting [5]), the EC50 hypnozoite quantity was more than 50 µM and the “EC50 schizont net growth area” value was more than 16700 nM. In test [2] (setting [5]), this compound had a CC20 hepatic nuclei of more than 50 µM. Besides, the maximum inhibition in test [3] (setting [5]) turned out to be 76.7%.

Consider `Cc1ccnc(Nc2nc(-c3ccccn3)cs2)c1`, for which, in test [1] (setting [6]), the EC50 hypnozoite quantity was more than 50 µM and the “EC50 schizont net growth area” value was found to be 1790 nM. The CC20 hepatic nuclei in test [2] (setting [6]) was more than 5.56 µM. Further, the maximum inhibition in test [3] (setting [6]) was 84.1%.

In turn, `Cc1ccc(Nc2nc(-c3ccccn3)cs2)nc1` registered an EC50 hypnozoite quantity in test [1] (setting [7]) of 19.9 µM. The same compound came in with a CC20 hepatic nuclei in test [2] (setting [7]) of more than 50 µM. Further, the maximum inhibition in test [3] (setting [7]) turned out to be 90.9%.

`CCN(CC)CCCNc1nc(-c2ccc(Cl)cc2)nc2ccccc12`: in test [1] (setting [8]), the EC50 hypnozoite quantity is more than 50 µM and the “EC50 schizont net growth area” value was more than 5560 nM. The same compound yielded a CC20 hepatic nuclei in test [2] (setting [8]) of 40.2 µM. The maximum inhibition in test [3] (setting [8]) is 99.6%.

With `CCOc1ccc(CCC2CCN(C(C)c3nc(N)nc(N(C)C)n3)CC2)cc1` (stereo not drawn), in test [1] (setting [4]), the EC50 hypnozoite quantity was more than 10 µM and the “EC50 schizont net growth area” value is more than 3330 nM. Also, the CC20 hepatic nuclei in test [2] (setting [4]) was more than 10 µM. For the same compound, the maximum inhibition in test [3] (setting [4]) was 64.7%.

As to `CCOc1ccc2nc(C)cc(Nc3ccc(N(C)C)cc3)c2c1`, in test [1] (setting [8]), the EC50 hypnozoite quantity is more than 50 µM and the “EC50 schizont net growth area” value is more than 16700 nM. In test [2] (setting [8]), the CC20 hepatic nuclei was 16.2 µM. In test [3] (setting [8]), the maximum inhibition turned out to be 84.6%.

`CC[C@H](NC(=O)[C@H](C)NC)C(=O)N1C[C@@H](O)C[C@H]1Cc1c(-c2[nH]c3cc(F)ccc3c2C[C@@H]2C[C@H](O)CN2C(=O)[C@H](CC)NC(=O)[C@H](C)NC)[nH]c2cc(F)ccc12` had an EC50 hypnozoite quantity in test [1] (setting [7]) of more than 50 µM. For the same compound, the CC20 hepatic nuclei in test [2] (setting [7]) was more than 5.56 µM. Further, the maximum inhibition in test [3] (setting [7]) stood at 73%.

As to `CN(C(=O)c1cc2c(-c3cncnc3)cccc2[nH]1)c1ccccc1`, in test [1] (setting [5]), the EC50 hypnozoite quantity is more than 50 µM and the “EC50 schizont net growth area” value was determined as 3110 nM. In test [2] (setting [5]), this compound came in with a CC20 hepatic nuclei of more than 50 µM. In addition, the maximum inhibition in test [3] (setting [5]) is 84.7%.

For `CN(C)CCCNc1c2ccccc2nc2ccccc12`, in test [1] (setting [7]), the EC50 hypnozoite quantity was more than 50 µM and the “EC50 schizont net growth area” value was 9240 nM. This compound had a CC20 hepatic nuclei in test [2] (setting [7]) of 5.73 µM. Further, the maximum inhibition in test [3] (setting [7]) came out at 108%.

`CN1CCN(C(c2cccs2)c2ccc3cccnc3c2O)CC1` (stereo not drawn): in test [1] (setting [9]), the EC50 hypnozoite quantity was more than 10 µM. In test [2] (setting [9]), the CC20 hepatic nuclei was more than 10 µM. For the same compound, the maximum inhibition in test [3] (setting [9]) was 60.5%.

On to `CN1CCN(c2ccc(Nc3c4ccccc4nc4ccccc34)cc2)CC1`, for which, in test [1] (setting [7]), the EC50 hypnozoite quantity was more than 50 µM and the “EC50 schizont net growth area” value is 6040 nM. The CC20 hepatic nuclei in test [2] (setting [7]) worked out at 5.55 µM. Moreover, the maximum inhibition in test [3] (setting [7]) was found to be 111%.

As to `COc1cc(-c2cc(-c3ccc(S(C)(=O)=O)cc3)cnc2N)ccc1O`, in test [1] (setting [5]), the EC50 hypnozoite quantity was more than 50 µM and the “EC50 schizont net growth area” value was more than 16700 nM. The CC20 hepatic nuclei in test [2] (setting [5]) is more than 50 µM. In addition, the maximum inhibition in test [3] (setting [5]) was determined as 80.2%.

Consider `COc1ccc(-c2cncc3ccc(C(=O)NCCCn4ccnc4)nc23)cc1`, for which, in test [1] (setting [5]), the EC50 hypnozoite quantity was more than 50 µM and the “EC50 schizont net growth area” value turned out to be 26000 nM. In addition, the CC20 hepatic nuclei in test [2] (setting [5]) stood at 44.8 µM. Also, the maximum inhibition in test [3] (setting [5]) was found to be 70.8%.

As to `COc1ccc(-c2c(C)nn3c(N)c(C#N)cnc23)cc1OC`, in test [1] (setting [8]), the EC50 hypnozoite quantity was more than 50 µM and the “EC50 schizont net growth area” value was found to be 599 nM. In test [2] (setting [8]), this compound registered a CC20 hepatic nuclei of more than 50 µM. Besides, the maximum inhibition in test [3] (setting [8]) was found to be 95.7%.

Turning to `COc1ccc(-c2nn(C(C)C)c3ncnc(N)c23)cc1OC`, in test [1] (setting [5]), the EC50 hypnozoite quantity was more than 50 µM and the “EC50 schizont net growth area” value came to 294 nM. Also, the CC20 hepatic nuclei in test [2] (setting [5]) is more than 50 µM. In addition, in test [3] (setting [5]), the maximum inhibition stood at 71.3%.

`COc1ccc(-c2cnc3ccc(NCc4ccc(S(N)(=O)=O)cc4)nn23)cn1`: the EC50 hypnozoite quantity in test [1] (setting [5]) was more than 50 µM. The compound further registered a CC20 hepatic nuclei in test [2] (setting [5]) of more than 50 µM. In addition, the maximum inhibition in test [3] (setting [5]) turned out to be 79.2%.

Turning to `COc1ccccc1CNC(=O)CCn1c(=O)[nH]c2ccccc2c1=O`, in test [1] (setting [10]), the EC50 hypnozoite quantity was more than 10 µM and the “EC50 schizont net growth area” value came out at 680 nM. The same compound registered a CC20 hepatic nuclei in test [2] (setting [10]) of more than 10 µM. Besides, the maximum inhibition in test [3] (setting [10]) was 98.3%.

Regarding `Cc1sc2ncnc(Sc3nc4ccccc4[nH]3)c2c1C`, in test [1] (setting [8]), the EC50 hypnozoite quantity was more than 50 µM and the “EC50 schizont net growth area” value came to 1620 nM. In test [2] (setting [8]), this compound displayed a CC20 hepatic nuclei of 46.9 µM. Besides, in test [3] (setting [8]), the maximum inhibition is 92.9%.

Turning to `N#CC(C#N)=NNc1cc(Cl)cc(Cl)c1`, in test [1] (setting [7]), the EC50 hypnozoite quantity is more than 50 µM and the “EC50 schizont net growth area” value came to 4040 nM. The compound also came in with a CC20 hepatic nuclei in test [2] (setting [7]) of 5.21 µM. In test [3] (setting [7]), the maximum inhibition is 85.1%.

`O=c1c(Cl)c(Cl)cnn1-c1nc2ccccc2[nH]1` came in with an EC50 hypnozoite quantity in test [1] (setting [9]) of more than 3.33 µM. Moreover, in test [2] (setting [9]), the CC20 hepatic nuclei is more than 3.33 µM. For the same compound, the maximum inhibition in test [3] (setting [9]) came to 89.7%.

For the compound `O=C(NCCN1CCCC1)c1cc(NCCCCN2CCC(F)(F)CC2)nc2ccc(Cl)cc12`, in test [1] (setting [5]), the EC50 hypnozoite quantity was more than 50 µM and the “EC50 schizont net growth area” value came to 3.16 nM. In test [2] (setting [5]), this compound had a CC20 hepatic nuclei of more than 50 µM. In addition, in test [3] (setting [5]), the maximum inhibition came out at 103%.

For `O=C(Nc1nc(-c2ccccn2)cs1)C1CC1c1ccccc1F` (stereo not drawn), the EC50 hypnozoite quantity in test [1] (setting [11]) was more than 10 µM. Further, the CC20 hepatic nuclei in test [2] (setting [11]) is more than 10 µM. Also, the maximum inhibition in test [3] (setting [11]) came to 94.3%.

Turning to `N#Cc1ccc(-c2cnc(N)c(-c3ccc(C(N)=O)cc3)n2)cc1`, in test [1] (setting [5]), the EC50 hypnozoite quantity is more than 50 µM and the “EC50 schizont net growth area” value turned out to be 1.2 nM. Besides, the CC20 hepatic nuclei in test [2] (setting [5]) is more than 50 µM. In test [3] (setting [5]), the maximum inhibition is 85.1%.

For `Nc1ncc(-c2ccc(C(F)(F)F)nc2)cc1-c1ccc(C(F)(F)F)nc1`, in test [1] (setting [5]), the EC50 hypnozoite quantity is more than 50 µM and the “EC50 schizont net growth area” value came out at 190 nM. The CC20 hepatic nuclei in test [2] (setting [5]) is more than 50 µM. For the same compound, the maximum inhibition in test [3] (setting [5]) worked out at 87.5%.

`Nc1ncc(-c2cn[nH]c2)cc1-c1nc2cc(Cl)cnc2[nH]1`: in test [1] (setting [5]), the EC50 hypnozoite quantity was more than 50 µM and the “EC50 schizont net growth area” value was more than 50000 nM. This compound also gave a CC20 hepatic nuclei in test [2] (setting [5]) of more than 50 µM. The maximum inhibition in test [3] (setting [5]) worked out at 63.7%.

With `OCc1ccc(-c2cncc(Nc3cccc(Cl)c3)c2)cc1`, in test [1] (setting [8]), the EC50 hypnozoite quantity is more than 50 µM and the “EC50 schizont net growth area” value amounted to 2540 nM. Also, in test [2] (setting [8]), the CC20 hepatic nuclei is more than 16.7 µM. Besides, in test [3] (setting [8]), the maximum inhibition came out at 94.1%.

As for `O=C(Nc1ccc([N+](=O)[O-])cc1)Nc1cc(OCC(F)(F)F)cc(OCC(F)(F)F)c1`, in test [1] (setting [9]), the EC50 hypnozoite quantity is more than 10 µM and the “EC50 schizont net growth area” value stood at 3330 nM. Also, in test [2] (setting [9]), the CC20 hepatic nuclei was more than 3.33 µM. Besides, in test [3] (setting [9]), the maximum inhibition was 75.3%.

Regarding `N#CC(c1ccc(Br)cc1)c1ccc2c(C(F)(F)F)cc(C(F)(F)F)nc2n1` (stereo not drawn), in test [1] (setting [9]), the EC50 hypnozoite quantity amounted to 0.957 µM and the “EC50 schizont net growth area” value is 1240 nM. Moreover, the CC20 hepatic nuclei in test [2] (setting [9]) was found to be 5.44 µM. The maximum inhibition in test [3] (setting [9]) is 86%.

Take `CC(C)(ON=C(C(=O)NC1C(=O)N2C(C(=O)[O-])=C(C[n+]3ccccc3)CSC12)c1csc(N)n1)C(=O)O` (stereo not drawn) [Ceftazidime pentahydrate]: in test [1] (setting [12]), the EC50 hypnozoite quantity is more than 10 µM and the “EC50 schizont net growth area” value was more than 10000 nM. Also, the maximum inhibition in test [3] (setting [12]) is 47.9%.
